The target in assay [1] is T1, recombinant Axl tyrosine kinase (Homo sapiens, UniProt P30530).
T1 construct: encompassing amino acids 473 to 894 of Axl; GST (N); made in house; host or cells: SF126 insect cells
T1 sequence (P30530 473-894): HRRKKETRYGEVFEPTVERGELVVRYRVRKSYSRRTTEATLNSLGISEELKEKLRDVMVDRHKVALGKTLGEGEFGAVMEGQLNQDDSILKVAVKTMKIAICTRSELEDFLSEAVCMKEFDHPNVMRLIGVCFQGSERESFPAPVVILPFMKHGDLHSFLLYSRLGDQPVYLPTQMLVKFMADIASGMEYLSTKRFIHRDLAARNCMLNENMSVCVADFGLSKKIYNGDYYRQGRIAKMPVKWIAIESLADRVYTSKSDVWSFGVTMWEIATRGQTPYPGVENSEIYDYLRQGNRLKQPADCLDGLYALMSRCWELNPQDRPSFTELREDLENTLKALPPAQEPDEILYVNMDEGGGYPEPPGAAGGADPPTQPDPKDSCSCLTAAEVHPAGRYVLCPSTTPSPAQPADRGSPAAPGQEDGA
The experiment in a line: In vitro Axl kinase assay (AlphaScreen), Test (a). It counts as biochemical. A general note: Alpha assays give light when donor and acceptor beads are brought close together.

Assay [2] has as its target T2, c-Met (Homo sapiens, UniProt P08581).
T2 construct: pY^1234pY^1235c-Met(1074-1366) kinase domain
The experiment in a line: In vitro c-Met kinase assay (AlphaScreen), Test (c). It counts as biochemical. Conditions: read-out: IC50 versus c-Met tyrosine kinase. How it is done:
The assay used AlphaScreen technology (Gray et al., Analytical Biochemistry, 2003, 313: 234-245) to determine the ability of test compounds to prevent the activation of c-Met, in which wild type activated c-Met phosphorylates a mutant form of c-Met lacking catalytic activity but retaining the ability to be phosphorylated on the activating residues.
Kinase activity assays were performed in 384-well low-volume white plates (Greiner, 784075) with a total volume of 12 μL in each well. Each kinase reaction contained 40 pg (100 pM) pY^1234pY^1235c-Met(1074-1366) kinase domain, 44 ng (100 nM) cMyc-[D1204N,R1208Q]c-Met(1069-1366)-biotin, 25 mM HEPES (pH7.4), 0.1 mM sodium orthovanadate, 1 mM DTT, 0.01% (v/v) Tween-20, 10 mM magnesium chloride, 0.1% BSA, 50 μM ATP.
Various concentrations of test compounds were each added in 6% (v/v) DMSO to yield a final assay DMSO concentration of 1% (v/v). […] Plates were read using an Envision (Perkin Elmer) with excitation at 680 nm, emission […]. […]

Assay [3] addresses T3, Axl expressed on NCI H1299 lung large cell carcinoma cells (Homo sapiens, UniProt P30530).
T3 sequence (P30530 26-894): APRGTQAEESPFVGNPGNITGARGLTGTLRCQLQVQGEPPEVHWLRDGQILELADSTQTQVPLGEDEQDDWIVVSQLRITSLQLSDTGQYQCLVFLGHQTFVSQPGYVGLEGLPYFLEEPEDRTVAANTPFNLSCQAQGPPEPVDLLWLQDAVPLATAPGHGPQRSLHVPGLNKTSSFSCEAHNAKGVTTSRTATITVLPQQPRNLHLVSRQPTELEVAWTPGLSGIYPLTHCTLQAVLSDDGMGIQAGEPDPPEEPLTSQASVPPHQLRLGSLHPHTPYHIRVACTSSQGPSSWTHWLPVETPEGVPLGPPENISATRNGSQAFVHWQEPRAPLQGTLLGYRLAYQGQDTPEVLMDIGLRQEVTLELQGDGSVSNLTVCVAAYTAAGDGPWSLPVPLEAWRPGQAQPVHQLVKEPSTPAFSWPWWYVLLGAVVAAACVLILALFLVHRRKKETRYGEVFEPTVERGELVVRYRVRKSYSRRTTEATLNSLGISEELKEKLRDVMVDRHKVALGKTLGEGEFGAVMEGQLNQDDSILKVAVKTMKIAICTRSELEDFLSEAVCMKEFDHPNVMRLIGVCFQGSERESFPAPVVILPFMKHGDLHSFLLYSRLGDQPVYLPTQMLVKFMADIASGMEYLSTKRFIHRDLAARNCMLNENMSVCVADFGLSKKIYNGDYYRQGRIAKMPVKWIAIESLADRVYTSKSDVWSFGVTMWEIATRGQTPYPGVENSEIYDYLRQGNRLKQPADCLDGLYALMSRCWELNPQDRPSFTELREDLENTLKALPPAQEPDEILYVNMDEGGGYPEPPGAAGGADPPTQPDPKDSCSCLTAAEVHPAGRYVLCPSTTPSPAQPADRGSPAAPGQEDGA
The experiment in a line: Cellular phospho-Axl ELISA assay, Test (b). The conditions noted are these: Test (b).
Method: This assay uses a conventional ELISA method to determine the ability of test compounds to inhibit phosphorylation of tyrosine residues in Axl.
100 μl Aliquots were seeded into each of the wells of a clear 96 well tissue culture plate and the plates were incubated overnight at 37° C. with 5% CO2 to allow the cells to adhere to the wells.
Aliquots of each compound concentration were added to the cells in each well using the Echo 550 (Labcyte Inc., Sunnyvale, Calif., US). Control cells received DMSO only. The cells were incubated for 2 hours at 37° C. with 5% CO2.
The resultant tissue culture plates were incubated on ice for 30 minutes to ensure full lysis.
The wells were washed 3 times with 250 μl per well of PBS containing 0.05% v/v Tween (PBS/T). The wells were treated with 3% w/v BSA in PBS at ambient temperature for 2 hours and subsequently washed 3 times with 250 μl per well of PBS/T.
50 μl Aliquots of the NCI H1299 cell lysates were added to the ELISA plates.
100 μl Aliquots of substrate solution were added to each of the wells and fluorescence was read on a Tecan Ultra plate reader (Tecan UK Ltd., Reading, Berkshire, UK).

Where two headings read alike, the source gives them in different places.

The values below come from patent US8017611B2, “Pyridine and pyrazine derivatives -083” (AstraZeneca AB, priority 2007, dated 2011).

The term IC50 denotes the concentration that gives 50% inhibition.

T2 sequence (P08581 1074-1366): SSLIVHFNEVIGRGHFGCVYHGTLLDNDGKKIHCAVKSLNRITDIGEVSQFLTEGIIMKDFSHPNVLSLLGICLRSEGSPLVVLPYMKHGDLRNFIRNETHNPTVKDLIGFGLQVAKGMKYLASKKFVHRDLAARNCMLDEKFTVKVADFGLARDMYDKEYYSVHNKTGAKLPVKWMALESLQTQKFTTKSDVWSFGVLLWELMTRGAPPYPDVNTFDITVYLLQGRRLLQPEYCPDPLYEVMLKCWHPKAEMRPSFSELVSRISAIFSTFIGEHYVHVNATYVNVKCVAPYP

Regarding `CN1CCC(n2cc(-c3cnc(N)c(-c4nc5ccc(F)cc5o4)c3)cn2)CC1` [Example 7.2], the IC50 in assay [1] (Test (a), read-out: IC50 versus Axl tyrosine kinase) is about 0.024 µM; in assay [2] it was about 1.95 µM; in assay [3] (read-out: IC50 versus cellular phospho-Axl, mean recalculated from a larger number of replicates, later recalculated) it was 0.111 µM; in assay [3] (read-out: IC50 versus cellular phospho-Axl, NCI H1299 cells stimulated with GAS6), about 0.039 µM. Besides, the “% Axl tyrosine kinase inhibition at 1 μM concentration” value in assay [1] (test compound at 1 μM, first value quoted) is listed as 96.6%.
